The source of these data is ChEMBL document CHEMBL1142346, “Quantitative structural-activity relationship (QSAR) study for fungicidal activities of thiazoline derivatives against rice blast” (2008).

Each structure is given as a SMILES string.

In the first experiment the test system is Pyricularia grisea. In words: Antifungal activity against Magnaporthe grisea infected rice plant assessed as logarithm of fungal control value at 100 ppm after 5 days. The class given is functional.
Consider `CC(C)Oc1ccc(/N=c2/scc(CC(=O)Nc3ccc(C(F)F)cc3)n2C)cc1`, for which the Activity is 1.7. For the molecule `COc1ccc(/N=c2\scc(CC(=O)Nc3ccc(C(F)F)cc3)n2C)cc1`, the Activity amounted to 1.4.

`CCCCc1ccc(/N=c2/scc(CC(=O)Nc3ccc(OC)cc3)n2C)cc1`: the Activity is recorded as 1.98.

Take `COc1ccc(NC(=O)Cc2cs/c(=N/c3ccc(Cl)cc3)n2C)cc1`: the Activity amounted to 1.97.

As for `CCOc1ccc(/N=c2/scc(CC(=O)Nc3ccc(OC)cc3)n2C)cc1`, the Activity was 1.98. For `COc1ccc(NC(=O)Cc2cs/c(=N/c3ccc([N+](=O)[O-])cc3)n2C)cc1`, the Activity is on record as 2. Same read-out and setting: under `CCc1ccc(NC(=O)Cc2cs/c(=N/c3ccc(Oc4ccccc4)cc3)n2C)cc1` stands 1.98; under `CCCCCCc1ccc(/N=c2/scc(CC(=O)Nc3ccc(CC)cc3)n2C)cc1`, 2; under `COc1ccc(/N=c2/scc(CC(=O)Nc3ccc(OC(F)(F)F)cc3)n2C)cc1`, 1.4.

Consider `CCCCc1ccc(/N=c2\scc(CC(=O)Nc3ccc(Cl)cc3)n2C)cc1`, for which the Activity is recorded as 1.97. As to `CCc1ccc(NC(=O)Cc2cs/c(=N\c3cccc([N+](=O)[O-])c3)n2C)cc1`, the Activity is 1.99. On the same count and under the same terms, under `Cn1c(CC(=O)Nc2ccc(Oc3ccccc3)cc2)cs/c1=N/c1ccc(Br)cc1` stands 1.23; under `CCCCOc1ccc(NC(=O)Cc2cs/c(=N/c3ccc(C(F)(F)F)cc3)n2C)cc1`, 1; under `Cn1c(CC(=O)Nc2ccc(Oc3ccccc3)cc2)cs/c1=N/c1ccc(Oc2ccccc2)cc1`, 1.4. Still for that read-out and setting: under `CCCCc1ccc(/N=c2/scc(CC(=O)Nc3ccc([N+](=O)[O-])cc3)n2C)cc1` stands 1.11. Still for that read-out and setting: under `CCc1ccc(NC(=O)Cc2cs/c(=N/c3ccc(-c4ccccc4)cc3)n2C)cc1` stands 1.99.

For `Cn1c(CC(=O)Nc2ccc([N+](=O)[O-])cc2)cs/c1=N/c1ccc(C#N)cc1`, the Activity is listed as 0.7. The same measure, in the same setting: next, `CCc1ccc(NC(=O)Cc2cs/c(=N/c3ccc(CC#N)cc3)n2C)cc1`: 2; `CCc1ccc(NC(=O)Cc2cs/c(=N/c3ccc(C(C)=O)cc3)n2C)cc1`: 2. As to `Cc1ccc(NC(=O)Cc2cs/c(=N/c3ccc(Br)cc3)n2C)cc1`, the Activity turned out to be 1.94.

Regarding `Cn1c(CC(=O)Nc2ccc([N+](=O)[O-])cc2)cs/c1=N/c1ccc(F)cc1`, the Activity came out at 0.9. The same measure, in the same setting: under `CCCCCOc1ccc(/N=c2/scc(CC(=O)Nc3ccc(CC)cc3)n2C)cc1` stands 1.96. Turning to `CCc1ccc(NC(=O)Cc2cs/c(=N/c3ccc(I)cc3)n2C)cc1`, the Activity came out at 1.97.

Turning to `Cn1c(CC(=O)Nc2ccc(C(F)F)cc2)cs/c1=N\c1ccc(Cl)cc1`, the Activity came to 1.52. Same read-out and setting: under `CC(C)c1ccc(NC(=O)Cc2cs/c(=N/c3ccc(C(F)(F)F)cc3)n2C)cc1` stands 1.8; under `COc1ccc(NC(=O)Cc2cs/c(=N/c3ccc(SC)cc3)n2C)cc1`, 1.96. On the same count and under the same terms, under `CCc1ccc(NC(=O)Cc2cs/c(=N/c3ccc(Cl)cc3)n2C)cc1` stands 2; under `CCc1ccc(NC(=O)Cc2cs/c(=N/c3ccc(C#N)cc3)n2C)cc1`, 1.92.

In the case of `CCc1ccc(NC(=O)Cc2cs/c(=N\c3ccc(F)c(Cl)c3)n2C)cc1`, the Activity turned out to be 1.98. Still for that read-out and setting: under `Cn1c(CC(=O)Nc2ccc(Cl)cc2)cs/c1=N\c1ccc(-c2ccccc2)cc1` stands 1.98. In the case of `CCc1ccc(NC(=O)Cc2cs/c(=N\c3ccc(OC)cc3)n2C)cc1`, the Activity is given as 1.99. Turning to `Cn1c(CC(=O)Nc2ccc(OC(F)(F)F)cc2)cs/c1=N/c1ccc(Cl)cc1`, the Activity stood at 1.52. Still for that read-out and setting: next, `COc1ccc(NC(=O)Cc2cs/c(=N/c3ccc(OC(F)(F)F)cc3)n2C)cc1`: 1.99; `CCCCc1ccc(/N=c2/scc(CC(=O)Nc3ccc(CC)cc3)n2C)cc1`: 1.99.

For `CCc1ccc(NC(=O)Cc2cs/c(=N/c3ccc(OC(F)(F)F)cc3)n2C)cc1` (stereo in doubt; 5), the Activity came out at 1.99. Still for that read-out and setting: under `CCc1ccc(NC(=O)Cc2cs/c(=N/c3ccc(OC(F)(F)F)cc3)n2C)cc1` (stereo in doubt; 8) stands 1.93.

The test system of the next experiment is Pyricularia grisea. In words: Antifungal activity against Magnaporthe grisea infected rice plant after 5 days relative to control. The class given is functional. Further details: concentration or dose not given beside the values.
`CN(C(=O)Cc1cs/c(=N\c2ccc(Br)cc2)n1C)c1ccccc1` yielded an Activity of 0%.

`CN(C(=O)Cc1cs/c(=N\c2cc(Cl)cc(Cl)c2)n1C)c1ccccc1` came in with an Activity of 8%.

For `CN(C(=O)Cc1cs/c(=N\c2ccc(F)cc2F)n1C)c1ccccc1`, the Activity turned out to be 0%.

Turning to `COc1ccc(/N=c2\scc(CC(=O)Nc3ccc(Cl)cc3)n2C)cc1`, the Activity turned out to be 83%.

As for `CCc1ccc(NC(=O)Cc2cs/c(=N\c3ccc(C#N)cc3)n2CCO)cc1`, the Activity is 86%.

`CCc1ccc(NC(=O)Cc2cs/c(=N\c3ccc(C#N)cc3)n2C)cc1` had an Activity of 93%. Consider `COc1ccc(NC(=O)Cc2cs/c(=N\c3ccc([N+](=O)[O-])cc3)n2CCO)cc1`, for which the Activity is given as 20%. The same measure, in the same setting: next, `COc1ccc(NC(=O)Cc2cs/c(=N\c3ccc([N+](=O)[O-])cc3)n2C)cc1`: 99%. The same measure, in the same setting: under `Cn1c(CC(=O)Nc2ccc(Br)cc2)cs/c1=N\c1ccc(Oc2ccccc2)cc1` stands 98%; under `O=C(Cc1cs/c(=N\c2ccc(Oc3ccccc3)cc2)n1C1CC1)Nc1ccc(Br)cc1`, 16%; under `CN(C(=O)Cc1cs/c(=N\c2ccc(F)cc2)n1C)c1ccccc1`, 0%. The same measure, in the same setting: under `CCc1ccc(NC(=O)Cc2cs/c(=N\c3ccc(OC)cc3)n2CCO)cc1` stands 75%; under `CN(C(=O)Cc1cs/c(=N\c2ccc(Oc3ccccc3)cc2)n1C)c1ccccc1`, 0%. In turn, `CN(C(=O)Cc1cs/c(=N\c2ccc(C#N)cc2)n1C)c1ccccc1` showed an Activity of 25%. Same read-out and setting: next, `CCc1ccc(NC(=O)Cc2cs/c(=N\c3ccc(OC)cc3)n2C)cc1`: 98%.

For the molecule `CN(C(=O)Cc1cs/c(=N\c2ccc(C(F)(F)F)cc2)n1C)c1ccccc1`, the Activity was 0%.

In turn, `COc1ccc(/N=c2\scc(CC(=O)Nc3ccc(Cl)cc3)n2CCO)cc1` returned an Activity of 10%.

In the case of `CN(C(=O)Cc1cs/c(=N\c2cccc(F)c2)n1C)c1ccccc1`, the Activity is given as 0%.
